How the values were obtained:
Type in all cases: binding, human
[1] = system: serum 1a (individual 1, early serum)
[2] = system: serum 1b (individual 1, late serum)
[3] = system: serum 37 (individual 37)
[4] = system: control serum Blood-bank (commercial negative donor pooled serum)
[5] = system: serum SARS-green
[6] = system: control serum LUMC (pooled serum of ten healthy hospital workers)
[7] = system: serum 62 (individual 62)
[8] = system: serum London
[9] = system: serum SARS-yellow
[10] = system: serum 6 (individual 6)
[11] = system: sera SARS-green, SARS-yellow, 1a, 1b, 2, 6, 37, 62 and London
[12] = system: serum 2 (individual 2)

Row | Sequence | Binding of serum 1a to linear peptides of Orf14 of SARS-CoV TOR2 [1] | Binding of serum 1b to linear peptides of Orf14 of SARS-CoV TOR2 [2] | Binding of serum 37 to linear peptides of Orf14 of SARS-CoV TOR2 [3] | Control Serum Blood-Bank Looped peptides [4] | Control serum Blood-bank linear peptides [4] | Binding of serum SARS-green to linear peptides of Orf14 of SARS-CoV TOR2 [5] | Control serum LUMC linear peptides [6] | Control serum LUMC looped peptides [6] | Binding of serum 62 to linear peptides of Orf14 of SARS-CoV TOR2 [7] | Binding of serum London to linear peptides of Orf14 of SARS-CoV TOR2 [8] | Binding of serum SARS-yellow to linear peptides of Orf14 of SARS-CoV TOR2 [9] | Binding of serum 6 to linear peptides of Orf14 of SARS-CoV TOR2 [10] | Recognition of the peptide by sera of individuals infected by SARS-CoV, form recognized [11] | Binding of serum 2 to linear peptides of Orf14 of SARS-CoV TOR2 [12]
1 | PPCYNFLKEQHCQKA | 0.3 | 0.2 | 0.3 | 0.8 | 0.2 | 0.1 | 0.1 | 0.6 | 0.2 | 0.1 | 0.0 | 0.2 | recognized in looped form | 0.1
2 | KASTQREAEAAVKPL | 0.3 | 0.3 | 0.3 | 0.6 | 0.3 | 0.1 | 0.3 | 0.6 | 0.2 | 0.2 | 0.1 | 0.3 | recognized in looped form | 0.3
3 | YNFLKEQHCQKASTQ | 0.5 | 0.4 | 0.6 | 0.7 | 0.5 | 0.5 | 0.5 | 0.5 | 0.5 | 0.7 | 0.3 | 0.5 | recognized in looped form | 0.5
4 | KEQHCQKASTQREAE | 0.4 | 0.3 | 0.4 | 0.9 | 0.3 | 0.1 | 0.3 | 0.8 | 0.2 | 0.3 | 0.2 | 0.3 | recognized in looped form | 0.4
5 | STQREAEAAVKPLLA | 0.5 | 0.3 | 0.6 | 1.2 | 0.6 | 0.4 | 0.6 | 1.2 | 0.4 | 0.4 | 0.5 | 0.5 | recognized in looped form | 0.5
6 | QHCQKASTQREAEAA | 0.4 | 0.4 | 0.5 | 1.1 | 0.4 | 0.3 | 0.4 | 1.2 | 0.4 | 0.5 | 0.3 | 0.3 | recognized in looped form | 0.6
7 | EQHCQKASTQREAEA | 0.4 | 0.4 | 0.5 | 0.9 | 0.5 | 0.3 | 0.4 | 0.8 | 0.3 | 0.5 | 0.4 | 0.4 | recognized in looped form | 0.6
8 | LPPCYNFLKEQHCQK | 0.3 | 0.2 | 0.3 | 0.9 | 0.2 | 0.0 | 0.2 | 0.6 | 0.2 | 0.1 | 0.0 | 0.2 | recognized in looped form | 0.2
9 | HCQKASTQREAEAAV | 0.6 | 0.5 | 0.7 | 0.9 | 0.5 | 0.4 | 0.6 | 0.8 | 0.7 | 0.7 | 0.6 | 0.6 | recognized in looped form | 0.9
10 | QKASTQREAEAAVKP | 0.4 | 0.3 | 0.4 | 0.7 | 0.3 | 0.1 | 0.3 | 0.8 | 0.3 | 0.3 | 0.1 | 0.3 | recognized in looped form | 0.4
11 | LKEQHCQKASTQREA | 0.3 | 0.2 | 0.4 | 0.9 | 0.3 | 0.1 | 0.3 | 0.9 | 0.2 | 0.3 | 0.3 | 0.2 | recognized in looped form | 0.4
12 | FLKEQHCQKASTQRE | 0.3 | 0.3 | 0.4 | 0.9 | 0.4 | 0.1 | 0.3 | 1.1 | 0.3 | 0.3 | 0.2 | 0.2 | recognized in looped form | 0.3

Reference: patent US20060154243A1 (priority 2003, published 2006)
